# PubChem BioAssay (NCI)
#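 Cells were grown in 96-well plates and exposed to each compound for 48 hours at five concentrations; endpoints were interpolated linearly between bracketing concentrations, or set to the highest concentration if not reached. GI50: concentration for 50% inhibition of growth. TGI: total growth inhibition.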
# Key:
# Assay in all cases: NCI anticancer screen, dose series, 48 h
# [1] = tested on: OVCAR-8 ovarian
# [2] = tested on: NCI-H226 lung
# [3] = tested on: HCT-116 colon
# [4] = tested on: SN12C renal
# [5] = tested on: HL-60(TB) leukemia
# [6] = tested on: NCI/ADR-RES ovarian
# [7] = tested on: HOP-92 NSCLC
# [8] = tested on: HOP-62 NSCLC
# [9] = tested on: HS 578T breast
# [10] = tested on: M14 melanoma
# [11] = tested on: KM12 colon
# [12] = tested on: NCI-H23 lung
# [13] = tested on: SF-268 CNS
# [14] = tested on: OVCAR-4 ovarian
# [15] = tested on: MDA-MB-435
# [16] = tested on: NCI-H522 lung
# [17] = tested on: EKVX NSCLC
# [18] = tested on: CCRF-CEM leukemia
# [19] = tested on: SK-MEL-5 melanoma
# [20] = tested on: SF-295 CNS
# [21] = tested on: MCF7 breast
# [22] = tested on: SK-MEL-28 melanoma
# [23] = tested on: A549 NSCLC
# [24] = tested on: SNB-75 CNS
# [25] = tested on: RXF 393 renal
# [26] = tested on: HCC-2998 colon
# [27] = tested on: BT-549 breast
# [28] = tested on: DU-145 prostate
# [29] = tested on: SF-539 CNS
# [30] = tested on: CAKI-1 renal
# [31] = tested on: T-47D breast
# [32] = tested on: UO-31 renal
# [33] = tested on: HCT-15 colon
# [34] = tested on: MOLT-4 leukemia
# [35] = tested on: HT29 colon
# [36] = tested on: UACC-62 melanoma
# [37] = tested on: U251 CNS
# [38] = tested on: COLO 205 colon
# [39] = tested on: OVCAR-5 ovarian
# [40] = tested on: OVCAR-3 ovarian
# [41] = tested on: MDA-MB-231 breast
# [42] = tested on: A498 renal
# [43] = tested on: PC-3 prostate
# [44] = tested on: RPMI-8226 leukemia
# [45] = tested on: SNB-19 CNS
# [46] = tested on: TK-10 renal
# [47] = tested on: NCI-H460 lung
# [48] = tested on: LOX IMVI melanoma
# [49] = tested on: ACHN renal
# [50] = tested on: UACC-257 melanoma
# [51] = tested on: SK-MEL-2 melanoma
# [52] = tested on: SK-OV-3 ovarian
# [53] = tested on: MALME-3M melanoma
# [54] = tested on: SW-620 colon
# [55] = tested on: IGROV1 ovarian
# [56] = tested on: 786-0 renal
smiles,measurement,setting,value
CC1(C)CCC2(CC1)N[C@@H](C(=O)N[C@@H]1CC[C@@H](C(N)=O)OC1)[C@H](c1ccnc(Cl)c1F)[C@]21C(=O)Nc2cc(Cl)ccc21,GI50,[1],3.92 µM
same,TGI,[1],27.7 µM
same,GI50,[2],0.0935 µM
same,TGI,[2],0.804 µM
same,GI50,[3],0.07 µM
same,TGI,[3],6.96 µM
same,GI50,[4],3.13 µM
same,TGI,[4],12 µM
same,GI50,[5],2.36 µM
same,TGI,[5],5.59 µM
same,GI50,[6],16.3 µM
same,TGI,[6],45.5 µM
same,GI50,[7],1.78 µM
same,TGI,[7],4.79 µM
same,GI50,[8],2.31 µM
same,TGI,[8],7.83 µM
same,GI50,[9],2.33 µM
same,TGI,[9],10.4 µM
same,GI50,[10],2.14 µM
same,TGI,[10],5.63 µM
same,GI50,[11],2.39 µM
same,TGI,[11],6.23 µM
same,GI50,[12],3.73 µM
same,TGI,[12],15.4 µM
same,GI50,[13],3.5 µM
same,TGI,[13],19.1 µM
same,GI50,[14],3.19 µM
same,TGI,[14],14.1 µM
same,GI50,[15],2.44 µM
same,TGI,[15],6.22 µM
same,GI50,[16],2.01 µM
same,TGI,[16],4.46 µM
same,GI50,[17],2.38 µM
same,TGI,[17],7.6 µM
same,GI50,[18],3.01 µM
same,TGI,[18],13.3 µM
same,GI50,[19],0.743 µM
same,TGI,[19],2.17 µM
same,GI50,[20],2.14 µM
same,TGI,[20],5.04 µM
same,GI50,[21],0.037 µM
same,TGI,[21],2.28 µM
same,GI50,[22],1.95 µM
same,TGI,[22],4.06 µM
same,GI50,[23],0.26 µM
same,TGI,[23],13.1 µM
same,GI50,[24],2.17 µM
same,TGI,[24],9.38 µM
same,GI50,[25],2.26 µM
same,TGI,[25],5.67 µM
same,GI50,[26],1.7 µM
same,TGI,[26],3.21 µM
same,GI50,[27],2.45 µM
same,TGI,[27],7.52 µM
same,GI50,[28],3.94 µM
same,TGI,[28],16.1 µM
same,GI50,[29],1.93 µM
same,TGI,[29],4.66 µM
same,GI50,[30],0.0622 µM
same,TGI,[30],4.15 µM
same,GI50,[31],2.58 µM
same,TGI,[31],7.85 µM
same,GI50,[32],0.261 µM
same,TGI,[32],3.04 µM
same,GI50,[33],2.88 µM
same,TGI,[33],10.1 µM
same,GI50,[34],0.107 µM
same,TGI,[34],3.13 µM
same,GI50,[35],2.22 µM
same,TGI,[35],6.01 µM
same,GI50,[36],0.0556 µM
same,TGI,[36],2.05 µM
same,GI50,[37],2.8 µM
same,TGI,[37],9.64 µM
same,GI50,[38],2.11 µM
same,TGI,[38],5.39 µM
same,GI50,[39],2.15 µM
same,TGI,[39],5.9 µM
same,GI50,[40],2.75 µM
same,TGI,[40],8.2 µM
same,GI50,[41],1.92 µM
same,TGI,[41],3.98 µM
same,GI50,[42],0.111 µM
same,TGI,[42],3.95 µM
same,GI50,[43],2.26 µM
same,TGI,[43],6.25 µM
same,GI50,[44],2.12 µM
same,TGI,[44],5.57 µM
same,GI50,[45],3.38 µM
same,TGI,[45],15.2 µM
same,GI50,[46],3.13 µM
same,TGI,[46],15.7 µM
same,GI50,[47],0.179 µM
same,TGI,[47],2.05 µM
same,GI50,[48],0.124 µM
same,TGI,[48],2 µM
same,GI50,[49],0.139 µM
same,TGI,[49],2.28 µM
same,GI50,[50],0.19 µM
same,TGI,[50],2.53 µM
same,GI50,[51],2.16 µM
same,TGI,[51],5.02 µM
same,GI50,[52],3 µM
same,TGI,[52],9.27 µM
same,GI50,[53],0.0482 µM
same,TGI,[53],2.03 µM
same,GI50,[54],3.81 µM
same,TGI,[54],23.1 µM
same,GI50,[55],0.793 µM
same,TGI,[55],6.13 µM
same,GI50,[56],2.77 µM
same,TGI,[56],8.51 µM
